From US20050272605A1, “Method to treat seeds” (priority 2002, published 2005)

Columns and labels:
[1] = tested on: Brachiaria dictyoneura seeds; experiment: Germination test of Brachiaria dictyoneura seeds after scarification, nitrate soaking and GA (Example 2); assay type: in vivo
From the text: The seeds (two replicates of 100 seeds) were sown on a soil substrate with the same growth conditions described above.

[2] = tested on: Paspalum notatum seeds; experiment: Germination of Paspalum notatum seeds, lot of 2001 (Example 5); assay type: in vivo, Paspalum notatum cv Pensacola; conditions: one scarification and aerated nitrate treatment
[3] = tested on: Brachiaria dictyoneura seeds; experiment: Germination test of Brachiaria dictyoneura seeds after scarification and aerated nitrate treatment (Example 1); assay type: in vivo; conditions: for % Germination 7 days (paper + water): paper substrate irrigated with water, after 7 months storage
Method: The tank is filled with an approximately 0.2% solution of potassium nitrate 16 in water, to level which will ensure that the seed-containing bags are just immersed. The seeds 15 are immersed at ambient temperature for about 10 to about 36 hours, during which time the tank is constantly aerated by a flow of air form the compressed air source through the perforated pipe 12. The bags are then removed form the tank 10 and allowed to drain for about 12 hours. If the seed being treated requires addition of further agents such as gibberellic acid or smoke extract, then suitable quantities of these ingredients in solution are poured over the draining seed, and mixed by hand. The seeds are then dried to between 8% and 14% moisture content, preferably 12% moisture content, and stored as required.
A lot of Brachiaria dictyoneura seeds were harvested manually (by cutting the panicle and sweating for six days in heaps, and then threshing) in Zapote, Pérez Zeledón, Costa Rica, in July 2000. The seeds were dried in the shade, classified to remove waste and stored at 15° C. and 60% relative humidity for six months. A 30 kg sample of this seed lot was then scarified for 30 minutes with concentrated sulphuric acid on Jan. 4, 2001. The seeds were dried to 12% moisture and then re-scarified for a further 15 minutes on Feb. 26, 2001. After the second scarification the seeds were soaked in potassium nitrate for 24 hours and drained for 12 hours by the process described above.
Small 50 g sub-samples of the same seed lot were also taken, some of which were scarified once or twice but not treated, and some of which only received the first 30-minute scarification, but were treated. The seeds were then dried carefully in the sun until they reached the 12% moisture content. A sample of the nitrate treated, double scarified seed was tested for germination on Mar. 8, 2001, using 3 replicates of […] pure seeds on a soil-based substrate, at approximately 35° C. during the day, and 15° C. during the night, with florescent and incandescent lighting during the day (12 hours), in closed plastic germination trays. The result was 79% germination after 26 days. The four samples were then stored for a further 7 months when the following germination test was carried out on Nov. 17, 2001, using 4 replicates of 100 seeds on a paper substrate irrigated with water, and the same growth conditions described above.

[4] = tested on: Paspalum notatum seeds; experiment: Germination of Paspalum notatum seeds, lot of 1997 (Example 4); assay type: in vivo, Paspalum notatum (cv. Pensacola)
[5] = tested on: Brachiaria brizantha seeds; experiment: Germination test of acid-scarified Brachiaria brizantha seeds on soil or paper substrate (Example 3); assay type: in vivo
Method: Effect of nitrate on a lot of acid-scarified Brachiaria brizantha imported from Brazil in July 2001, shortly after harvesting from the soil surface, using different substrates for the germination test.
The seeds were treated on Aug. 15, 2001 and after drying, samples were taken and tested for germination on Aug. 24, 2001. The soil substrate was maintained at the same moisture level throughout the test by weight. The paper substrate was maintained moist by irrigation from below, using a piece of plastic foam to separate the paper from the water in the base of the tray.

[6] = tested on: Panicum maximum seeds; experiment: Germination of Panicum maximum seeds (Example 6); assay type: in vivo, Panicum maximum cv. Tanzania; conditions: scarified seeds

O=[N+]([O-])[O-].[K+] [Nitrate, potassium nitrate]
% Germination 15 days (soil substrate) ([1]; Scarification once (20 minutes)): 42.5b % | % Germination 15 days (soil substrate) ([1]; Scarification twice (20 + 10 minutes)): 65.0c % | % Germination [2]: 79.0% | % Germination 7 days (paper + water) ([3]; Scarified once, listed as Aerated nitrate treatment): 87.25c % | % Germination 7 days (paper + water) ([3]; Scarified once, listed as aerated nitrate treatment): 87% | % Germination 7 days (paper + water) ([3]; Scarified twice, listed as Aerated nitrate treatment): 93.00c % | % Germination 7 days (paper + water) ([3]; Scarified twice, listed as aerated nitrate treatment): 93% | germination after 26 days ([3]; double scarified seed, soil-based substrate, tested Mar. 8, 2001): 79% | seedling vigor ([3]; seedlings from treated seeds versus untreated): greater vigor | increase in germination due to nitrate treatment ([3]; seeds scarified once): 30% | increase in germination due to nitrate treatment ([3]; seeds scarified twice): 20% | % Germination ([4]; Scarification 10 minutes): 64.8% | % Germination ([4]; Scarification 20 minutes): 63.5% | % Germination 7 days ([5]; Paper substrate): 77cd % | % Germination 25 days ([5]; Paper substrate): 82cde % | % Germination 7 days ([5]; Soil substrate): 88de % | % Germination 25 days ([5]; Soil substrate): 90e % | % Germination [6]: 50.0%
